Laboratory results taken from paper PMC4515504 (Evidence-based Complementary and Alternative Medicine : eCAM, 2015).

Tested on: T1, alpha-glucosidase (from Bacillus stearothermophilus)
T1 construct: gene maltase
Experiment: pNPG hydrolysis, Lineweaver-Burk plot
Format: biochemical, Geobacillus stearothermophilus
Conditions: control without extract; pNPG 0.08-5 mg/mL, 37°C, 20 min; unreliable: Km extrapolated above the tested substrate range
Text: pNPG hydrolysis, Lineweaver-Burk plot on alpha-glucosidase (from Bacillus stearothermophilus)

Alpha-glucosidase / K m: 17.39 mg/mL
Compound: O=[N+]([O-])c1ccc(O[C@H]2O[C@H](CO)[C@@H](O)[C@H](O)[C@H]2O)cc1 [p-nitrophenyl glucopyranoside]
